Assay results: patent US20210369677A1, “SMALL MOLECULE ACTIVATORS OF POLYCYSTIN-2 (PKD2) AND USES THEREOF” (Northwestern University, priority 2020, published 2021)
“Also recorded” adds a separate entry of the source. One block for each compound: values may come before it.

Legend:
[1] = biological target: T1, human polycystin-2 CTD EF hand (I704-P797) (Homo sapiens, UniProt Q13563); assay: Isothermal titration calorimetry of divalent ions into the CTD of polycystin-2; type: binding
T1 construct: The C-terminal fragment of the human polycystin-2 (I704-P797) was cloned into the PET19b vector; 10xHis (N); made in house; host or cells: E. coli BL21 (DE3)
T1 sequence (Q13563 704-797): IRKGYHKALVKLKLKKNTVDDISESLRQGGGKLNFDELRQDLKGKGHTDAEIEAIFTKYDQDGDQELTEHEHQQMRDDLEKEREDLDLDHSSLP
Protocol: CTD protein expression, purification, and isothermal titration calorimetry. The C-terminal fragment of the human polycystin-2 (I704-P797) was cloned into the PET19b vector and transformed into BL21 (DE3) competent cells (New England Biolabs) for bacterial expression. The translated peptide has a 10×His tag on its N-terminus. The alanine mutants of the individual calcium-coordinating residues were created and transformed as well. Cells were grown in 2XYT broth in a 37° C. shaking incubator until OD600 reaches ˜0.6, and were induced by 0.4 mM isopropyl 1-thio-β-D-galactopyranoside and grown for another 4 hours. Cells were harvested and resuspended in Buffer A (500 mM NaCl, 20 mM Tris/HCl, pH 7.4), 5% glycerol, 0.25 mM EDTA pH 8.0, 1 mM PMSF (RPI), 25 μg/ml of lysozyme and DNase I (GoldBio). The suspension was then lysed by sonication and clarified by centrifugation (30,000×g for 0.5 h). Filtered supernatant was loaded into a HisPur cobalt Superflow agarose column (ThermoScientific). The column was washed with 10 column volume (CV) of buffer A, 5 CV of buffer A+5 mM imidazole, and finally eluted with 3 CV of buffer A+100 mM imidazole. The eluate was desalted by dialysis in 150 mM NaCl, 20 mM Tris/HCl, 20 mM imidazole, pH 7.4. SDS-PAGE gel confirmed the expression, solubility, and purity of the peptide. All of our solutions were formulated with ultrapure water (Milli-Q® IQ 7005 water purification system), that has less than 0.29 ng/L calcium ions present. The binding affinity is recorded based on the heat difference between the sample cell and reference cell measured by MicroCal iTC200. […] The cells were insulated by an adiabatic jacket held at 25° C. The heat of dilution of Ca^2+ was not subtracted from data sets, as the signal was prohibitively small for several of the mutant channels. The exothermic energy of the bimolecular interaction between Ca^2+ and peptide during each injection was analyzed by integrating the change in heat to generate the binding isotherm. […]

PKD2 [2] = biological target: T2, PKD2 (Homo sapiens, UniProt Q13563); assay: Three stage testing strategy for PKD2 activators; type: cell-based; conditions: three screening stages
T2 sequence (Q13563 1-968): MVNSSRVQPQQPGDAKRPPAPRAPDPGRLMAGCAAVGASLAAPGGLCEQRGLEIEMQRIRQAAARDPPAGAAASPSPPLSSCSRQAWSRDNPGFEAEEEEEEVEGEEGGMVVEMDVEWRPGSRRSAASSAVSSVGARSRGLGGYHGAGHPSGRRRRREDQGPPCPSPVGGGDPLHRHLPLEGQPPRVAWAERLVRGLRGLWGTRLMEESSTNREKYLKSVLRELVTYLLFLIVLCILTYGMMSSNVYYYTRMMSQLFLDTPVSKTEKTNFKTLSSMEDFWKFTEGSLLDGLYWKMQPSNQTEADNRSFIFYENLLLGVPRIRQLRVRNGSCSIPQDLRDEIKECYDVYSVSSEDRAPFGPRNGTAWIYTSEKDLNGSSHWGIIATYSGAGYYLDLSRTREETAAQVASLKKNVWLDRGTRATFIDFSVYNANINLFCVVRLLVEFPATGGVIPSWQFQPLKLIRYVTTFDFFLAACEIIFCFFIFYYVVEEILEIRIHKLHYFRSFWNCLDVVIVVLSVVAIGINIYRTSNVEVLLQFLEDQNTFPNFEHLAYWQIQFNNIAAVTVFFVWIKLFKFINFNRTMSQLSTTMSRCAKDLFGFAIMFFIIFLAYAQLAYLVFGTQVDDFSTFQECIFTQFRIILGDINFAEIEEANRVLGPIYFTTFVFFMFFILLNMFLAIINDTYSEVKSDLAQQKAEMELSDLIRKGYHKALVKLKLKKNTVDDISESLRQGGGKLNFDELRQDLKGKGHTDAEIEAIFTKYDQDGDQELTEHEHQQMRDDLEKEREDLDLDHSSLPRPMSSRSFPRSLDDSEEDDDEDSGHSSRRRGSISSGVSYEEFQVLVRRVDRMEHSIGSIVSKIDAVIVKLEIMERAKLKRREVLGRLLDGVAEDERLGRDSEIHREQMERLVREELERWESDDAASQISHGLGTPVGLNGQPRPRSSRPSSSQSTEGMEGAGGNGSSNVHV
Excerpt: (§1) FIG. 31. […] Top, the screening of each stage. […] Bottom, cilia Ca^2+ responses from cells with PKD2 present and knocked out using CRISPR=Cas9 (N=17 cells each). D, E) Stage 3 (Cilia Electrophysiology): image of a patched cilia from collecting ducts and corresponding PKD2-dependent current activated by NS1643.
The polycystin pharmacophore remains outstanding because these channels localize to the primary cilium—an antenna-like organelle that requires innovative tools to study. To address this knowledge gap, our laboratory has established a series of cilia-specific channel activity reporters (voltage and calcium reporters) and model systems (poly cystin-dependent yeast growth) which will be used in a three-stage drug screen to characterize the pharmacology of polycystins. We screened a commercially available chemical library containing 384 compounds for activity against wild type polycystins, and identified three channel activators. […]
Our screening strategy included three stages. […] In Stage 2, we measured PKD2 activation by the test compounds using increased ciliary Ca2+ fluorescence and membrane potential from human kidney collecting duct cells in which PKD2 had been knocked out by CRISPR-Cas9. In Stage 3, we assessed activation of polystin-2 dependent currents by the test compounds via imaging of patched cilia from collecting ducts and measuring change in current versus voltage. […]

PKD2 [3] = biological target: T2, PKD2; assay: Cilia Ca2+ fluorescence (smo-GCaMP3), Stage 2; type: cell-based; set-up: cilia Ca^2+ responses from cells with PKD2 present and knocked out using CRISPR=Cas9; endogenous in cells; host or cells: human kidney collecting duct cells expressing the smo-GCaMP3 cilia reporter; conditions: smo-GCaMP3, human kidney collecting duct cells; read-out: EC50, increased ciliary Ca2+ fluorescence
Excerpt: as §1
(§2) Our screening strategy included three stages. (See FIG. 31). In Stage 1 of our screening assay, we utilized cyst cells in a P. pastoris (strain YS634) PKD2 Ca^2+-dependent yeast growth assay. P. pastoris growth is dependent on induction and stimulation of PKD2 ion transport by test compounds including NS1643, calmidazolium, and W-13. In Stage 2, we measured PKD2 activation by the test compounds using increased ciliary Ca2+ fluorescence and membrane potential from human kidney collecting duct cells in which PKD2 had been knocked out by CRISPR-Cas9. In Stage 3, we assessed activation of polystin-2 dependent currents by the test compounds via imaging of patched cilia from collecting ducts and measuring change in current versus voltage. […] (See FIG. 32).

PKD2 [4] = biological target: T2, PKD2; assay: P. pastoris PKD2 Ca2+-dependent yeast growth assay (Stage 1); type: cell-based; conditions: P. pastoris strain Y5634; read-out: EC50, yeast growth dependent on stimulation of PKD2 cation transport
Excerpt: as §1, §2

PKD2 [5] = biological target: T2, PKD2; assay: PKD2 conductance assay; type: cell-based
Excerpt: FIG. 35. Conductance of PKD2 in the presence of test compounds CAS Number 57265-65-3 (calmidazolium (CMZ)), CAS Number 617-27-0 (W-13), and CAS Number 448895-37-2 (NS1643)
We also tested the additional compound CAS Number 57265-65-3 (calmidazolium (CMZ)), the compound CAS Number 617-27-0 (W-13), and NS1643 in a PKD2 conductance assay.

PKD2 [6] = biological target: T2, PKD2; assay: Cilia electrophysiology of patched cilia from collecting ducts (Stage 3); type: cell-based
Excerpt: as §1, §2

polycystin-2 = biological target: T3, polycystin-2 (Homo sapiens, UniProt Q13563); type: cell-based; conditions: 10 μM, voltage ramps
T3 construct: expressed in transfected cells
T3 sequence (Q13563 1-968): T2 sequence (Q13563 1-968)
Excerpt: Generation of HEK PKD2^Null cells line and the stable expression PKD2 variants. To generate the HEK PKD2^Null cell lines, we used a CRISPR/Cas9 gene editing kit available from Addgene (kit 1000000055). HEK 293 cells were electro-transfected with sgRNAs (caccg[…] and aaac[…]c) with the All-in-one Cas9 plasmid. […] Cells generated from single cell clones were selected after 4 weeks of expansion in a 96-wells plate. […] To generate the WT and variant PKD2 GFP or mCherry C-terminally tagged variant cell lines, the hPKD gene was subcloned into lentiviral pLVX-mcherry-N1 (Clontech) or pLVX-GFP-N1 (Clontech) vector using the Gibson assembly method. A linker encoding for six glycine residues was added between the PKD2 gene and the C-terminal tags, and missense variants were generated using standard, site-directed mutagenesis. The third-generation lentiviral packaging plasmids used for stable expression contained: pMDLg/pRRE (Addgene), […] pRSV-Rev (Addgene), and envelope expressing plasmid pMD2.G (Addgene). LentiX-293T cells (Takara) were transfected with polyethylineimine (Polysciences) at a 4:1:1:1 ratio of the transgene and viral packaging constructs. Supernatants were collected 48 and 72 hours post transfection and filtered through a 0.45 μm syringe filter. Lentiviral supernatant was concentrated 100 times using 1 volume of PEG-it (System Biosciences) virus precipitation solution and 4 volume of lentivirus-containing supernatant. The PEG-it and supernatant mixture were kept at 4 degrees for 24 hours and centrifuged at 1500 rpm for 30 minutes. The pellet containing lentivirus was resuspended with 1/100th volume of PBS of the original supernatant volume. HEK cells were infected with the lentivirus supernatant; PKD2-GFP or PKD2-mCherry expression was selected using culture media containing puromycin (2 μg/ml) for 30 to 90 days. Cells were then fluorescence-activated cell sorted (BD FacsMelody) at 5000 to 10,000 counts per minute to enrich for the transgene expression. Stable cell lines were cultured in Dulbecco's modified essential medium (DMEM) supplemented with 10% fetal bovine serum (FBS) and 100 units/ml penicillin, 100 units/ml streptomycin and 1 μg/ml puromycin selection antibiotic.
(§3) Electrophysiology. Ciliary ion currents were recorded using borosilicate glass electrodes polished to resistances of 14-22 MΩ using the cilium patch method previously described^32. Whole cell electrodes used to measure poly cystin-2L1 currents were fire polished to 1.5-4 MΩ resistances. Unless otherwise stated, whole cilia ionic currents were recorded in symmetrical [Na^+]. The pipette standard internal solution contained (in mM): 90 NaMES, 10 NaCl, 10 HEPES, 10 Na4-BAPTA (Glycine, N, N′-[1,2-ethanediylbis(oxy-2,1-phenylene)]bis[N-(carboxymethyl)]-,tetrasodium); pH was adjusted to 7.3 using NaOH. Standard bath solution contained 140 NaCl, 10 HEPES, 1.8 CaCl2); pH 7.4. All solutions were osmotically balanced to 295 (±6) mOsm with mannitol. Extracellular solutions containing TCEP and GSH were used within six hours of formulation. Data were collected using an Axopatch 200B patch clamp amplifier, Digidata 1440A, and pClamp 10 software. Whole-cilium and excised patch currents were digitized at 25 kHz and low-pass filtered at 10 kHz. In the whole cilium configuration, the holding potential was −60 mV and then depolarized using a 400 ms voltage ramp from −100 mV to 100 mV. The whole cell recordings of polycystin-2L1 currents were either activated by the same ramp protocol or by 100 ms depolarizations to 100 mV from a −100 mV holding potential.

polycystin-2L1 = type: cell-based; conditions: 10 μM, plasma membrane of HEK cells
Protocol: as §3, with “potential. External conditions were controlled using a Warner Perfusion Fast-Step (SF-77B) system in which the patched cilia and electrode were held in the perfusate stream. Data were analyzed by Igor Pro 7.00 (Wavemetrics, Lake Oswego, Oreg.). The polycystin-2 open probability and the polycystin-2L1 tail current-voltage relationships were fit to a Boltzmann function, f(x)=1/(1+exp[V−V1/2]/k) to estimate voltage of half-maximal activation of current (V1/2).” for “potential.”

PKD2 conductance (PKD2 [5]): increased PKD2 conductance
Structure (SMILES): NCCCCCCNS(=O)(=O)c1cccc2c(Cl)cccc12 [W-13, N-(6-Aminohexyl)-5-chloro-1-naphthalenesulfonamide]

Affinity of other divalent ions for polycystin-2 EF hand [1]: did not have affinity
Structure (SMILES): [Zn+2] [Zn^2+]

Further lines, the compound ahead of its results:

Structure (SMILES): [Mg+2] [Mg^2+]
Affinity of other divalent ions for polycystin-2 EF hand [1]: did not have affinity

Structure (SMILES): O=C(Nc1cc(C(F)(F)F)ccc1O)Nc1cc(C(F)(F)F)ccc1O [NS1643, 1,3-bis[2-hydroxy-5-(trifluoromethyl)phenyl]urea]
Identification as PKD2 activator (PKD2 [2]): identified as an activator of PKD2 activity; also recorded: exemplary PKD2 activator | EC50 (PKD2 [3]): 2300 nM | EC50 (PKD2 [4]): 1100 nM | PKD2 conductance (PKD2 [5]): increased PKD2 conductance | PKD2-dependent current (PKD2 [6]): activated

Structure (SMILES): [La] [lanthanum]
Block of ciliary WT polycystin-2 currents by trivalent ions (polycystin-2): blocked | Block of polycystin-2L1 currents by trivalent ions (polycystin-2L1): blocked
